Patent US5854039A, “Transformation of pichia methanolica” (ZymoGenetics, Inc., priority 1997, dated 1998)

Tested on: P. methanolica cells (strain CBS6515), UV-mutagenized
Test: Nystatin enrichment for auxotrophic mutants, titering for colony forming units
Type: cell-based, Pichia methanolica
Details: 1 mg nystatin added to remainder of 500 ml culture in minimal broth, one additional hour with shaking, nystatin-treated versus control cells
Experimental: Large-scale mutagenesis was then carried out using a 2-second UV exposure to provide about 20% killing. Cells were plated at approximately 10^4 cells/plate onto eight YEPD plates that were supplemented with 100 mg/L each of uracil, adenine, and leucine, which were added to supplement the growth of potential auxotrophs having the cognate deficiencies. Following UV exposure the plates were wrapped in foil and incubated overnight at 30° C. The following day the colonies on the plates (~10^5 total) were resuspended in water and washed once with water. An amount of cell suspension sufficient to give an OD600 of 0.1-0.2 was used to inoculate 500 ml of minimal broth made with yeast nitrogen base without amino acids or ammonia, supplemented with 1% glucose and 400 μg/L biotin. The culture was placed in a 2.8 L baffled Bell flask and shaken vigorously overnight at 30° C. The following day the cells had reached an OD600 of ~1.0-2.0. The cells were pelleted and resuspended in 500 ml of minimal broth supplemented with 5 g/L ammonium sulfate. The cell suspension was placed in a 2.8 L baffled Bell flask and shaken vigorously at 30° C. for 6 hours. 50 ml of the culture was set aside in a 250-ml flask as a control, and to the remainder of the culture was added 1 mg nystatin to select for auxotrophic mutants (Snow, Nature 211:206-207, 1966). […]

## C[C@@H]1[C@H](O)[C@@H](C)/C=C/C=C/CC/C=C/C=C/C=C/C=C/C(O[C@H]2O[C@H](C)[C@@H](O)[C@H](N)[C@@H]2O)CC2O[C@](O)(CC(O)C(O)CCC(O)CC(O)CC(O)CC(=O)O[C@H]1C)CC(O)C2C(=O)O (stereo partly shown) [nystatin]
  decrease in the number of viable cells (factor): 10^4
